# Positions of bridges follow the written chain, without caps; N, C: chain ends. Non-standard residues stand in square brackets, D forms with d. Residues, ends and D or L forms follow the SMILES beside them. R8 = C=CCCCCCC[C@@](C)(N)C(=O)O; S5 = C=CCCC[C@](C)(N)C(=O)O
# Assays:
# [1] = Circular dichroism, α-helicity; format: physicochemical; settings: CD, TFE/water (1:1), 50 μM peptide, 25 °C, 1 mm cuvette, calculated from [θ]222
# Protocol: The linear and stapled peptides were dissolved in the trifluoroethanol (TFE) and water (1 : 1) to a final concentration of 50 μM, respectively. The CD spectra were obtained with 1 mm quartz cuvette on Jasco-815 spectropolarimeter at 25 °C. The measurement parameters were set up as follows: wavelength, 185–260 nm; step resolution, 0.5 nm; speed, 20 nm min^−1. All spectra were converted to a uniform scale of molar ellipticity after background subtraction. The curves were smoothed using standard parameters. The ellipticity in the acquired CD spectra was converted to the molar ellipticity using the equation: [θ] = θ/(10 × c × l), where, [θ] is the Molar ellipticity (deg cm^2. d mol^−1), θ is the observed ellipticity corrected for the buffer at a given wavelength (m deg), c is the molar concentration and l is the path length (cm). The helicity of each peptide was calculated as described in a literature based on the ellipticity of the peptide's spectrum at 222 nm and the number of amino acids in the peptide sequence.
# Circular dichroism (CD) spectroscopy was used to investigate the secondary structures of the stapled and template peptides to probe structural changes induced by conformation constraint in a membrane-like milieu, including […] (TFE) and water (1 : 1). […] (Table 1, ESI ^†).
# [2] = test system: human normal liver cell LO-2; assay: MTT toxicity against normal cells, LO-2; format: cell-based; settings: 96 h
# Protocol: (§1) Anti-tumor activity was evaluated by the standard MTT assay with a slight modification measuring the median inhibitory concentration (IC50) values.[35] HCT-116 cells, HepG2 cells and A549 cells were plated in triplicate wells into a 96-well plate at 5 × 10^3/well and cultured routinely for 24 h. Cells were incubated with increasing concentrations of hymenochirin-1B and its analogs (0.1–30 μM) and continued to culture with DMEM plus 10% FBS at 37 °C and 5% CO2. After being incubated for 96 h, the absorbance A value was determined by MTT at 540 nm. The untreated HCT-116 cells, HepG2 cells and A549 cells were used as control. Each experiment was performed in duplicate. The inhibitory rate was calculated according to the following formula: inhibitory rate = (a value of the control group − a value of the study group)/a value of the control group × 100%.
# (§2) To further research the selectivity of these peptides towards cancer cells over normal cells. The growth-inhibitory activities of peptides were evaluated using the 3-(4,5-dimethylthiazol-2-yl)-2,5-diphenyltetrazolium bromide (MTT) assay against three normal cells,[35] namely, human normal liver cell LO-2, human normal Lung cell BEAS-2 and human normal kidney cell 293 T (Table S2 ^†). The experiments procedure was performed just same as growth inhibition of the peptides against tumor cells. […] It might be due to the higher averaged hydrophobicity produced by six or nine additional methylene and two olefinic carbons to the peptide to increase toxicity to human normal cells. This situation may be resolved through the addition of polar character and glycosylation into the sequence to decrease the averaged hydrophobicity to improve the selectivity of these peptides towards cancer cells over normal cells. These modifications of these peptides are under way, and the present study was focused on the improved anti-tumor activity of template peptide hymenochirin-1B.
# [3] = test system: human normal Lung cell BEAS-2; assay: MTT toxicity against normal cells, BEAS-2B; format: cell-based; settings: 96 h
# Protocol: as §1, §2
# [4] = test system: human normal kidney cell 293 T; assay: MTT toxicity against normal cells, 293T; format: cell-based; settings: 96 h
# Protocol: as §1, §2
SMILES,Helicity (%) [1] [%],"IC50 (μM) LO-2, toxicity against normal cells [2] [µM]","IC50 (μM) BEAS-2B, toxicity against normal cells [3] [µM]","IC50 (μM) 293T, toxicity against normal cells [4] [µM]"
CC[C@H](C)[C@H](N)C(=O)N[C@@H](CCCCN)C(=O)N[C@@H](CC(C)C)C(=O)N[C@@H](CO)C(=O)N[C@@]1(C)CCCC=CCCC[C@@](C)(C(=O)N[C@@H](CC(N)=O)C(=O)N[C@@H](CC(C)C)C(=O)N[C@@H](CCCCN)C(=O)N[C@@H](CCCCN)C(=O)N[C@H](C(=O)N[C@@H](CC(C)C)C(=O)N[C@@H](CCCCN)C(=O)NCC(=O)N[C@@H](C)C(=O)N[C@H](C(=O)N[C@@H](CCCCN)C(=O)NCC(=O)N[C@@H](C)C(=O)N[C@H](C(=O)N[C@@H](C)C(=O)N[C@H](C(=O)N[C@@H](C)C(=O)N[C@@H](CCCCN)C(=O)N[C@@H](CCSC)C(=O)N[C@H](C(N)=O)C(C)C)C(C)C)[C@@H](C)CC)[C@@H](C)CC)C(C)C)NC(=O)[C@H](CCCCN)NC(=O)[C@H]([C@@H](C)O)NC(=O)[C@H](CCC(=O)O)NC1=O [H-1] (H-IKLS[S5]ETK[S5]NLKKVLKGAIKGAIAVAKMV-NH2; staple 5-9),49.0,7.80 ± 0.21,9.61 ± 0.35,5.82 ± 0.45
CC[C@H](C)[C@H](N)C(=O)N[C@@H](CCCCN)C(=O)N[C@@H](CC(C)C)C(=O)N[C@@H](CO)C(=O)N1CCC[C@H]1C(=O)N[C@@H](CCC(=O)O)C(=O)N[C@H](C(=O)N[C@@H](CCCCN)C(=O)N[C@@H](CC(=O)O)C(=O)N[C@@H](CC(N)=O)C(=O)N[C@@H](CC(C)C)C(=O)N[C@@H](CCCCN)C(=O)N[C@@H](CCCCN)C(=O)N[C@H](C(=O)N[C@@H](CC(C)C)C(=O)N[C@@H](CCCCN)C(=O)N[C@@]1(C)CCCC=CCCC[C@@](C)(C(=O)N[C@@H](C)C(=O)N[C@H](C(=O)N[C@@H](C)C(=O)N[C@H](C(=O)N[C@@H](C)C(=O)N[C@@H](CCCCN)C(=O)N[C@@H](CCSC)C(=O)N[C@H](C(N)=O)C(C)C)C(C)C)[C@@H](C)CC)NC(=O)[C@H](CCCCN)NC(=O)[C@H]([C@@H](C)CC)NC(=O)[C@H](C)NC1=O)C(C)C)[C@@H](C)O [H-9] (H-IKLSPETKDNLKKVLK[S5]AIK[S5]AIAVAKMV-NH2; staple 17-21),,8.56 ± 0.32,7.72 ± 0.36,8.66 ± 0.23
CC[C@H](C)[C@H](N)C(=O)N[C@@H](CCCCN)C(=O)N[C@@H](CC(C)C)C(=O)N[C@@H](CO)C(=O)N1CCC[C@H]1C(=O)N[C@@H](CCC(=O)O)C(=O)N[C@H](C(=O)N[C@@H](CCCCN)C(=O)N[C@@H](CC(=O)O)C(=O)N[C@@H](CC(N)=O)C(=O)N[C@@H](CC(C)C)C(=O)N[C@@H](CCCCN)C(=O)N[C@@H](CCCCN)C(=O)N[C@H](C(=O)N[C@@H](CC(C)C)C(=O)N[C@@H](CCCCN)C(=O)NCC(=O)N[C@@H](C)C(=O)N[C@H](C(=O)N[C@@H](CCCCN)C(=O)NCC(=O)N[C@@]1(C)CCCC=CCCC[C@@](C)(C(=O)N[C@@H](CCCCN)C(=O)N[C@@H](CCSC)C(=O)N[C@H](C(N)=O)C(C)C)NC(=O)[C@H](C(C)C)NC(=O)[C@H](C)NC(=O)[C@H]([C@@H](C)CC)NC1=O)[C@@H](C)CC)C(C)C)[C@@H](C)O [H-7] (H-IKLSPETKDNLKKVLKGAIKG[S5]IAV[S5]KMV-NH2; staple 22-26),65.9,6.52 ± 0.32,7.50 ± 0.32,7.25 ± 0.26
CC[C@H](C)[C@H](N)C(=O)N[C@@H](CCCCN)C(=O)N[C@@H](CC(C)C)C(=O)N[C@@H](CO)C(=O)N1CCC[C@H]1C(=O)N[C@@H](CCC(=O)O)C(=O)N[C@H](C(=O)N[C@@H](CCCCN)C(=O)N[C@@H](CC(=O)O)C(=O)N[C@@H](CC(N)=O)C(=O)N[C@@H](CC(C)C)C(=O)N[C@@H](CCCCN)C(=O)N[C@@H](CCCCN)C(=O)N[C@H](C(=O)N[C@@H](CC(C)C)C(=O)N[C@@H](CCCCN)C(=O)N[C@]1(C)CCCCCCC=CCCC[C@@](C)(C(=O)N[C@H](C(=O)N[C@@H](C)C(=O)N[C@@H](CCCCN)C(=O)N[C@@H](CCSC)C(=O)N[C@H](C(N)=O)C(C)C)C(C)C)NC(=O)[C@H]([C@@H](C)CC)NC(=O)[C@H](C)NC(=O)CNC(=O)[C@H](CCCCN)NC(=O)[C@H]([C@@H](C)CC)NC(=O)[C@H](C)NC1=O)C(C)C)[C@@H](C)O [H-4] (H-IKLSPETKDNLKKVLK[R8]AIKGAI[S5]VAKMV-NH2; staple 17-24),66.3,,,

# Further lines, with some results ahead:
Helicity (%) [1] [%],SMILES,"IC50 (μM) LO-2, toxicity against normal cells [2] [µM]","IC50 (μM) BEAS-2B, toxicity against normal cells [3] [µM]","IC50 (μM) 293T, toxicity against normal cells [4] [µM]"
60.5,CC[C@H](C)[C@H](N)C(=O)N[C@@H](CCCCN)C(=O)N[C@@H](CC(C)C)C(=O)N[C@@H](CO)C(=O)N1CCC[C@H]1C(=O)N[C@@H](CCC(=O)O)C(=O)N[C@H](C(=O)N[C@@H](CCCCN)C(=O)N[C@@H](CC(=O)O)C(=O)N[C@@H](CC(N)=O)C(=O)N[C@@H](CC(C)C)C(=O)N[C@@H](CCCCN)C(=O)N[C@@H](CCCCN)C(=O)N[C@H](C(=O)N[C@@H](CC(C)C)C(=O)N[C@@H](CCCCN)C(=O)NCC(=O)N[C@@H](C)C(=O)N[C@H](C(=O)N[C@@]1(C)CCCC=CCCC[C@@](C)(C(=O)N[C@H](C(=O)N[C@@H](C)C(=O)N[C@@H](CCCCN)C(=O)N[C@@H](CCSC)C(=O)N[C@H](C(N)=O)C(C)C)C(C)C)NC(=O)[C@H]([C@@H](C)CC)NC(=O)[C@H](C)NC(=O)CNC1=O)[C@@H](C)CC)C(C)C)[C@@H](C)O [H-8] (H-IKLSPETKDNLKKVLKGAI[S5]GAI[S5]VAKMV-NH2; staple 20-24),24.82 ± 0.44,12.82 ± 0.25,15.58 ± 0.36
64.9,CC[C@H](C)[C@H](N)C(=O)N[C@@H](CCCCN)C(=O)N[C@@H](CC(C)C)C(=O)N[C@@H](CO)C(=O)N1CCC[C@H]1C(=O)N[C@@H](CCC(=O)O)C(=O)N[C@H](C(=O)N[C@@H](CCCCN)C(=O)N[C@@H](CC(=O)O)C(=O)N[C@@H](CC(N)=O)C(=O)N[C@@H](CC(C)C)C(=O)N[C@@H](CCCCN)C(=O)N[C@@H](CCCCN)C(=O)N[C@H](C(=O)N[C@@H](CC(C)C)C(=O)N[C@@H](CCCCN)C(=O)NCC(=O)N[C@@H](C)C(=O)N[C@H](C(=O)N[C@]1(C)CCCCCCC=CCCC[C@@](C)(C(=O)N[C@@H](CCSC)C(=O)N[C@H](C(N)=O)C(C)C)NC(=O)[C@H](C)NC(=O)[C@H](C(C)C)NC(=O)[C@H](C)NC(=O)[C@H]([C@@H](C)CC)NC(=O)[C@H](C)NC(=O)CNC1=O)[C@@H](C)CC)C(C)C)[C@@H](C)O [H-6] (H-IKLSPETKDNLKKVLKGAI[R8]GAIAVA[S5]MV-NH2; staple 20-27),49.77 ± 0.22,46.58 ± 0.42,60.11 ± 0.35
65.7,CC[C@H](C)[C@H](N)C(=O)N[C@@H](CCCCN)C(=O)N[C@@H](CC(C)C)C(=O)N[C@@H](CO)C(=O)N1CCC[C@H]1C(=O)N[C@@H](CCC(=O)O)C(=O)N[C@H](C(=O)N[C@@H](CCCCN)C(=O)N[C@@H](CC(=O)O)C(=O)N[C@]1(C)CCCCCCC=CCCC[C@@](C)(C(=O)N[C@@H](C)C(=O)N[C@H](C(=O)N[C@@H](CCCCN)C(=O)NCC(=O)N[C@@H](C)C(=O)N[C@H](C(=O)N[C@@H](C)C(=O)N[C@H](C(=O)N[C@@H](C)C(=O)N[C@@H](CCCCN)C(=O)N[C@@H](CCSC)C(=O)N[C@H](C(N)=O)C(C)C)C(C)C)[C@@H](C)CC)[C@@H](C)CC)NC(=O)[C@H](CCCCN)NC(=O)[C@H](CC(C)C)NC(=O)[C@H](C(C)C)NC(=O)[C@H](CCCCN)NC(=O)[C@H](CCCCN)NC(=O)[C@H](CC(C)C)NC1=O)[C@@H](C)O [H-3] (H-IKLSPETKD[R8]LKKVLK[S5]AIKGAIAVAKMV-NH2; staple 10-17),7.61 ± 0.43,7.95 ± 0.36,4.58 ± 0.34
